Source: paper PMC11676896, “Protective Action of Cannabidiol on Tiamulin Toxicity in Humans—In Vitro Study” (International Journal of Molecular Sciences, 2024)
Where “and” joins values, the source holds several entries; their conditions need not be identical. Equal values may be shown once. Where a name gives a salt, the structure may show the parent alone. Read-outs that look alike come from different tables or passages of the source.

Assays:
RAW264.7 macrophages = tested on: RAW264.7 macrophages; design: method as in PMID 35956888; conditions: cited from earlier work
HepG2 cells [1] = assay: BrdU assay (DNA synthesis); format: cell-based, human; conditions: HepG2, 72 h
Experimental: (§1) The cytotoxic potential of the veterinary drug and its mixtures with cannabidiol at two non-toxic concentrations: 1.56 and 3.15 µg/mL, on the human SH-SY5Y, HepG2 and HEK 293 cell lines was assessed by decreased viability of the cells within five biochemical endpoints: mitochondrial activity and lysosomal activity (MTT assays, reducing the tetrazolium dye MTT 3-(4,5-dimethylthiazol-2-yl)-2,5-diphenyltetrazolium bromide and neutral red uptake (NRU) assays), total protein content (TPC assay), cellular membrane integrity (leakage lactate dehydrogenase (LDH) assay) and DNA synthesis (the bromodeoxyuridine/5-bromo-2′-deoxyuridine incorporation into the DNA cells (BrdU) assay) after 72 h exposition. Data obtained from the measurement of the optical density in these assays were transformed to percentages in relation to the negative control group (0.1% DMSO in medium), considered to be 100% for the MTT, NRU, TPC and BrdU assays and 0% for the LDH assay. 1% Trition-X 100 solution in medium was used as the positive controls, (Figure 3).
(§2) The human neuroblastoma (SH-SY5H), hepatoma (HepG2) and kidney cells (HEK 293) cells were purchased from the American Type Culture Collection: ATCCCRL-2266,ATCC HB-8065 and ATCC CRL-1573, respectively. These cells were cultured in Minimum Essential Medium Eagle (MEME) (ATCC). The media were supplemented with 10% FBS, 1% L-glutamine (and 1% antibiotic solution (P4333 Sigma). The cells were maintained in 75 cm^2 cell culture flasks (NUNC) in a humidified incubator at 37 °C in an atmosphere of 5% CO2. The medium was refreshed every two or three days, and the cells were subcultured by 0.25% trypsin–0.02% EDTA after reaching 70–80% confluence. Single cell suspensions were prepared and adjusted to a density of 2 × 10^5 cell/mL^−1 (SH-SY5H), 1 × 10^5 cell/mL^−1 (HepG2) and 1 × 10^5 cell/mL^−1 (HEK-293). The cell suspension was transferred to 96-well plates (100 µL/well) or Lab-Tek chamber slides (8 wells) (Nunc) for staining and incubated for 24 h before the exposure to the studied compounds. Stock solutions of tiamulin fumarate and cannabidiol were prepared in DMSO and diluted with culture medium to obtain a concentration range from 1.56 to 200 µg/mL and 1.56 or 3.156 µg/mL, respectively. The selection of tiamulin concentrations was based on data from the literature and pilot studies. The final concentration of DMSO was 0.1% in the medium. The same final concentrations of the solvent and the 1% Trition-X 100 solution were used as the negative and positive controls, respectively. A total of 500 µM hydrogen peroxide (H2O2) in was used as the positive control in the DCFH assay. […] As a negative control, cultured cells were grown in the absence of studied compounds. Each concentration was tested in six replicates in three independent experiments. Cytotoxicity was assessed after 72 h of exposure of the cells to the compounds. The medium was not changed during the incubation time.
(§3) Cell proliferation was evaluated by BrdU assay using a Cell Proliferation ELISA, BrdU (colorimetric) kit (Roche, Switzerland), according to manufacturer’s instructions. Briefly, BrdU was incorporated in the place of thymidine into the DNA of cells under division. This BrdU was detected by an anti-BrdU antibody conjugated with peroxidase and the reaction product of the enzyme with the given substrate was quantified by measuring its absorbance. The absorbance (A) was measured at 370 nm and 492 nm in a Synergy 2 Multi-Mode Microplate Reader (BioTek® Instruments Inc., Winooski, VT, USA), using a blank as a reference.
(§4) This study was performed in three independent experiments. The obtained results are presented as mean values ± SD (standard deviation). The assessment of the cytotoxicity data used a one-way analysis of variance (ANOVA) followed by Dunnett’s post hoc test, which was applied to determine significance relative to the negative control. […]

HEK 293 cells [2] = assay: BrdU assay (DNA synthesis); format: cell-based, human
Experimental: as §1, §2, §3, §4

SH-SY5Y cells [3] = assay: BrdU assay (DNA synthesis); format: cell-based, human; conditions: 72 h
Experimental: as §1, §2, §3, §4

HEK 293 cells [4] = assay: TPC assay (total protein content, proliferation); format: cell-based, human
Experimental: as §1, §2
(§5) This assay is based upon staining the total cellular protein (proliferation). After the incubation, the medium containing the drug was removed, and 100 µL Coomassie brilliant blue R-250 dye was added to each well. The plate was shaken for 10 min. Then, the stain was removed and the cells were rinsed twice with 100 µL of washing solution (glacial acetic acid/ethanol/water, 5:10:85, v:v:v). After that, 100 µL of the desorbing solution (1 M potassium acetate) was added, and plates were shaken again for 10 min. The absorbance was measured at 595 nm in a Synergy 2 Multi-Mode Microplate Reader (BioTek® Instruments Inc., Winooski, VT, USA) using a blank as a reference. Cytotoxicity was expressed as a percentage of the negative control (0.1% DMSO in medium).
(§6) This study was performed in three independent experiments. The obtained results are presented as mean values ± SD (standard deviation). […]

SH-SY5Y cells [5] = assay: TPC assay (total protein content, proliferation); format: cell-based, human; conditions: 72 h
Experimental: as §1, §2, §5, §6

HepG2 and HEK-293 cells = tested on: HepG2 and HEK-293 cells; design: method as in PMID 39241564, PMID 37709940; conditions: 10 h of exposure, cited from earlier work
HepG2 cells [6] = assay: LDH leakage assay (cell membrane integrity); format: cell-based, human; conditions: HepG2, 72 h
Experimental: as §1, §2
(§7) The integrity of the plasma membrane was assessed through the test of lactate dehydrogenase (LDH) release, which was monitored using the commercially available Cytotoxicity Detection Kit (LDH) (Roche Diagnostics, Warsaw, Poland). The medium (100 µL/well) without cells was transferred into the corresponding wells of an optically clear 96-well flat bottom microplate, and 100 µL reaction mixture was added to each well. Then, the plates were incubated for 30 min at room temperature in darkness. After that time, 50 µL/well of 1 M HCl was added to stop the reaction. The absorbance was measured at 492 nm in a Synergy 2 Multi-Mode Microplate Reader (BiTek® Instruments Inc., Winooski, VT, USA) using a blank as a reference.
as §6

HEK 293 cells [7] = assay: LDH leakage assay (cell membrane integrity); format: cell-based, human
Experimental: as §1, §2, §7, §6

SH-SY5Y cells [8] = assay: LDH leakage assay (cell membrane integrity); format: cell-based, human; conditions: 72 h
Experimental: as §1, §2, §7, §6

[9] = Homo sapiens, read-out: inhibited concentration (IC50), BrdU
[10] = Homo sapiens, read-out: inhibited concentration (IC50), LDH

C=C[C@]1(C)C[C@@H](OC(=O)CSCCN(CC)CC)[C@]2(C)[C@H](C)CC[C@]3(CCC(=O)[C@H]32)[C@@H](C)[C@@H]1O [T, tiamulin fumarate]
concentrations that did not result in 50% reduction in the macrophages' viability (RAW264.7 macrophages): up to 20 μg/mL
concentrations with no significant cytotoxicity (RAW264.7 macrophages): less than 5 μg/mL
tiamulin concentration that inhibited DNA synthesis (HepG2 cells [1]): 25 µg/mL
IC50 (HepG2 cells [1]; [9]): 13.9 ± 0.8 µg/mL
tiamulin concentration that inhibited DNA synthesis (HEK 293 cells [2]; HEK-293, 72 h): 12.5 µg/mL
IC50 (HEK 293 cells [2]; Homo sapiens, HEK293, 72 h, read-out: inhibited concentration (IC50), BrdU): 14.6 ± 1.3 µg/mL
tiamulin concentration that inhibited DNA synthesis (SH-SY5Y cells [3]): 6.25 µg/mL
IC50 (SH-SY5Y cells [3]; [9]): 9.9 ± 1.1 µg/mL
tiamulin concentration that inhibited proliferation (HEK 293 cells [4]; HEK-293, 72 h): 12.5 µg/mL
IC50 (HEK 293 cells [4]; Homo sapiens, HEK293, 72 h, read-out: inhibited concentration (IC50), TPC): 8.5 ± 0.6 µg/mL
tiamulin concentration that decreased total protein content / inhibited proliferation (SH-SY5Y cells [5]): 25 µg/mL
IC50 (SH-SY5Y cells [5]; Homo sapiens, read-out: inhibited concentration (IC50), TPC): 169 ± 3.3 µg/mL
concentrations with cytotoxic effects (HepG2 and HEK-293 cells; converted from µM): 49.4 µg/mL and 98.8 µg/mL
concentrations with cytotoxic effects (HepG2 and HEK-293 cells): 100 µM and 200 µM
tiamulin concentration that caused disintegration of the cell membrane (HepG2 cells [6]): 25 µg/mL
IC50 (HepG2 cells [6]; [10]): 39.5 ± 1.7 µg/mL
tiamulin concentration that caused disintegration of the cell membrane (HEK 293 cells [7]; HEK-293, 72 h): 25 µg/mL
IC50 (HEK 293 cells [7]; Homo sapiens, HEK293, 72 h, read-out: inhibited concentration (IC50), LDH): 76.9 ± 2.3 µg/mL
tiamulin concentration that caused disintegration of the cell membrane (SH-SY5Y cells [8]): 25 µg/mL
IC50 (SH-SY5Y cells [8]; [10]): > 200 µg/mL
